From patent publication US10370388B2, “Heterocyclic compounds and methods of their use” (NOVARTIS AG, priority 2012, dated 2019) come the findings set out here.

The target of one experiment is AT2 receptor (Homo sapiens (Human), UniProt P50052). The experiment can be described thus: AT2 receptor binding assay ([125I]-CGP42112A, HEK293/AT2 receptor cell membranes). As to conditions: displacement of [125I]-CGP42112A. On the procedure: Trypsin-EDTA (for preparation of 100 mL) • Trypsin 0.25 g • 2% EDTA 2 mL • PBS 98 mL • Dissolve trypsin in 2% EDTA and PBS completely; sterilize the solution by passing through a […] membrane filter; store at 4° C. • 2. […] Add slowly with stirring. • Dilute to 1 liter with ddH2O. • Sterilize the medium immediately by filtration. • Store at 4° C. • 3. TE buffer • 20 mM Tris-HCl, pH 7.4, • 5 mM EDTA • 4. Binding Assay Buffer • 50 mM Hepes, pH 7.4 • 5 mM MgCl2 • 1 mM CaCl2 • 0.2% BSA • 5.
Cells were ready for transfection after overnight incubation (the confluence reaches around 80%). • 75 μL Lipofectamine™2000 diluted in 6.25 mL OptiMEM I Reduced Serum Medium, was mixed gently, and incubated at room temperature for 5 minutes. 50 μg expression plasmid DNA diluted in 6.25 mL OptiMEM I Reduced Serum Medium without serum was mixed gently. • After the 5 minute incubation, the diluted DNA was combined with the diluted Lipofectamine™2000 (total volume is 12.5 mL).
Solutions of all compounds were prepared by microplate liquid handling equipment such as Janus or Precision 2000. Compounds, dissolved in DMSO were stored in a Freezer. Compounds were prepared from 30 mM in 100% DMSO.
All the compounds were diluted using Precision 2000 microplate liquid handling equipment. The top concentration of compound was 5 mM with 100% DMSO.
Step 3: Assay Plate Preparation (96 Well Plate)
A general note: Loss of bound radioactivity is the signal in a displacement assay; it reports binding, not function.

A further experiment addresses AT1 receptor (Homo sapiens (Human), UniProt P30556). The experiment can be described thus: AT1 receptor binding assay ([125I]-Sar1-Ile8-Angiotensin II, HEK293/AT1 receptor cell membranes). As to conditions: similar assay, at 10 μM. The source says: Biological Example 2: AT1 Receptor Binding
The same media, solutions, cell procedures and compound preparation was used as for Biological Example 1 but using HEK293/AT1 Receptor Transient Cells.

The subject of a further experiment is NG108-15 neurite cells. The experiment can be described thus: AT2 receptor neurite outgrowth assay. The class given is cell-based. The conditions noted are these: NG108-15 cells, in the presence of angiotensin II 0.1 μM, compound 0.003-10 μM. The procedure: Biological Example 3: AT2 Receptor Neurite Outgrowth Assay
The general methodology of Wallinder (2008) and references cited therein was used to assess the effect of the compounds of the present invention on neurite outgrowth. The assay was adapted for high content screening.
EMA1087 is a known AT2 receptor agonist described as “compound 21” in Wan et al. 2004. PD-123,319 is a known, commercially available AT2 receptor antagonist. The results were analyzed by immunofluorescence quantitative analysis. Neurite outgrowth was quantified with neurite average length using Cellomics software. Results are expressed as the mean±SEM, each conducted in triplicate. Statistical significance, compared with Ang II control: *p<0.05, **p<0.01, and ***p<0.001. NS: no significant difference. ND: not determined. FIGS. 1 to 5 show neurite outgrowth was inhibited by the AT2 receptor antagonists, PD-126,055 and compounds 6, 15, 21 and 28.

Structures are written as SMILES. pIC50: −log10 of the molar value.

Chain of AT2 receptor (P50052 whole entry, species assumed): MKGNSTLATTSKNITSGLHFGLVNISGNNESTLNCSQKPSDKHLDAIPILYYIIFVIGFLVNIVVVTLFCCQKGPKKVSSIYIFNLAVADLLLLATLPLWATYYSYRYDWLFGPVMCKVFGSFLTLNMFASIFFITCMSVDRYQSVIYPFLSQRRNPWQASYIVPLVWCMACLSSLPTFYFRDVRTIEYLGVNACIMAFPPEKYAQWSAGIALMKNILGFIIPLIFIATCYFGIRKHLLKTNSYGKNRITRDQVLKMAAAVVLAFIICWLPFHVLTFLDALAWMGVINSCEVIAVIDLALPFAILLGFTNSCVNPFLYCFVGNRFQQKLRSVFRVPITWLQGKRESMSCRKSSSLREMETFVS
Chain of AT1 receptor (P30556 whole entry, species assumed): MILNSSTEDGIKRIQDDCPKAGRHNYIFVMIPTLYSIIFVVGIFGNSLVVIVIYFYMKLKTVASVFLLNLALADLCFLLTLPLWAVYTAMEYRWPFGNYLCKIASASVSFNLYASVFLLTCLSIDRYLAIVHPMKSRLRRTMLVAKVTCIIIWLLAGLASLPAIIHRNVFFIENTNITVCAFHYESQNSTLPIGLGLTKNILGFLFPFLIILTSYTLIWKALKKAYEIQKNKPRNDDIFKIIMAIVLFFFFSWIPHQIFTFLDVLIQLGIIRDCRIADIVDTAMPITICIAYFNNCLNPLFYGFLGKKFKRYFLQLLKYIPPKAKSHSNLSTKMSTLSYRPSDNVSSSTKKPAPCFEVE

With `CN(CCCc1ccc(F)cc1)[C@H]1C[C@@H](C(N)=O)N(C(=O)C(c2ccccc2)c2ccccc2)C1` [Compound 136, (2S,4S)-1-(2,2-diphenylacetyl)-4-((3-(4-fluorophenyl)propyl)(methyl)amino)pyrrolidine-2-carboxamide], at AT2 receptor, the pIC50 (in general, the negative decadic logarithm of the IC50, by convention in mol/L) is 7.05. In addition, at AT1 receptor, the AT1 receptor binding result is “—: No significant inhibition of binding of the radiolabelled ligand even at top concentration tested (10 μM). Compounds 6, 112, 136 and 138 were also analysed in a similar assay and showed no AT1 receptor binding at 10 μM”. Regarding `O=C(O)[C@@H]1C[C@H](c2sccc2-c2ccccc2)CN1C(=O)C(c1ccccc1)c1ccccc1` [Compound 107, (2S,4S)-1-(2,2-diphenylacetyl)-4-(3-phenylthiophen-2-yl)-pyrrolidine-2-carboxylic acid], the pIC50 on AT2 receptor was 6.34. Turning to `CN(C)S(=O)(=O)NC(=O)[C@@H]1C[C@H](OCCCc2ccccc2)CN1C(=O)C(c1ccccc1)c1ccccc1` [Compound 112, (2S,4S)—N—(N,N-dimethylsulfamoyl)-1-(2,2-diphenylacetyl)-4-(3-phenylpropoxy)pyrrolidine-2-carboxamide], the AT1 receptor binding result on AT1 receptor is “—: No significant inhibition of binding of the radiolabelled ligand even at top concentration tested (10 μM). Compounds 6, 112, 136 and 138 were also analysed in a similar assay and showed no AT1 receptor binding at 10 μM”. As for `O=C(O)C1Cc2c(OCc3ccccc3)cccc2N1C(=O)C(c1ccccc1)c1ccccc1` (stereo not drawn) [Compound 15, 4-(benzyloxy)-1-(2,2-diphenylacetyl)indoline-2-carboxylic acid], the “neurite outgrowth (neurite average length)” value with NG108-15 neurite cells is on record as “inhibited”.

At AT2 receptor, `CN(CCCc1ccc(F)cc1)[C@H]1C[C@@H](C#N)N(C(=O)C(c2ccccc2)c2ccccc2)C1` [Compound 137, (2S,4S)-1-(2,2diphenylacetyl)-4-((3-(4-fluorophenyl)propyl)(methyl)amino)pyrrolidine-2-carbonitrile] gave a negative-log IC50 (pIC50) of 6.76.
